Article PMC8913687, “Novel indolic AMPK modulators induce vasodilatation through activation of the AMPK–eNOS–NO pathway” (Scientific Reports, 2022)
Where two headings read alike, the source gives them in different places. Blank lines part the entries; values can stand above or below the compound they belong to.

Legend:
AMPKα1β1γ1 [1] = target: T1, AMPKα1β1γ1 (Homo sapiens, UniProt Q13131+Q9Y478); test: SPR, […] series and competition with […] ATP; assay type: binding
T1 construct: gene PRKAA1; recombinant AMPK isoform α1β1γ1; with AMPK β1 (PRKAB1) and γ1 (PRKAG1)
T1 sequence (Q13131 whole entry, canonical isoform): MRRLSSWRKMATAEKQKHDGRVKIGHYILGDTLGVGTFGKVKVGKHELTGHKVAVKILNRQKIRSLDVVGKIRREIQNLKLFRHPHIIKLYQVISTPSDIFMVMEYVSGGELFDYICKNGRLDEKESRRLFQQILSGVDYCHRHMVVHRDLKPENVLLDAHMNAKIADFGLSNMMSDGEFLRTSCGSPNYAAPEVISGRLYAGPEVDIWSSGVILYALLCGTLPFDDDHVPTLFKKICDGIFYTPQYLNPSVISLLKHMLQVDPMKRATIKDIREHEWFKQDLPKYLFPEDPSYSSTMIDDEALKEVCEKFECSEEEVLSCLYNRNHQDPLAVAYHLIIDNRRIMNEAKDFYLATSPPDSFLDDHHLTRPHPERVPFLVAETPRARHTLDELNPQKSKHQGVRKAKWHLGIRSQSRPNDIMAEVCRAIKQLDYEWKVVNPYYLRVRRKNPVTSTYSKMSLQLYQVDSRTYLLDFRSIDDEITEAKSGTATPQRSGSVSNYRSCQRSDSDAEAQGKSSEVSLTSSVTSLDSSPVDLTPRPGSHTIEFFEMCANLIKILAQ
T1 sequence (Q9Y478 2-270): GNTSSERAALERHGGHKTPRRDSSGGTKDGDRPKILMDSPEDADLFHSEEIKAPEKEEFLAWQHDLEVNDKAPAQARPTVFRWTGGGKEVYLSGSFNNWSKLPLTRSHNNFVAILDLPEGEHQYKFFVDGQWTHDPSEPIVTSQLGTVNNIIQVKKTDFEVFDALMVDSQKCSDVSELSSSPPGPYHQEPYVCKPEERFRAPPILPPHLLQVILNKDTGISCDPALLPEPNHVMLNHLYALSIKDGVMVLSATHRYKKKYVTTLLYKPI
T1 sequence (P54619 whole entry partner, canonical isoform): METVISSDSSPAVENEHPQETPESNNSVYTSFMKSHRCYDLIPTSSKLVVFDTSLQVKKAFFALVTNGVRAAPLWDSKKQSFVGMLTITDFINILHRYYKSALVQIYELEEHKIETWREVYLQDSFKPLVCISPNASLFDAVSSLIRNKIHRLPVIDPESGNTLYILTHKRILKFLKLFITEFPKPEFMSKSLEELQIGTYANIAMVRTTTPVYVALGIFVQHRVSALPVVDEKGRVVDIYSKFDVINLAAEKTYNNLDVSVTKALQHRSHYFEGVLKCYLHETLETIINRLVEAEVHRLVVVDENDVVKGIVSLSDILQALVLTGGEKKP

AMPKα1β1γ1 [2] = target: T1, AMPKα1β1γ1; test: ADP-Glo kinase assay with SAMS peptide, Lineweaver-Burk kinetics vs ATP; binding also shown by SPR ([…] RU at […]); assay type: biochemical
AMPKα1β1γ1 [3] = target: T1, AMPKα1β1γ1; test: SPR at […]; also […] inhibition at […] in ADP-Glo kinase assay; assay type: binding
AMPKα1β1γ1 [4] = target: T1, AMPKα1β1γ1; test: as above; assay type: binding; remark: listed apart in the source

SMILES: CNC(=O)c1ccccc1Oc1nc(Nc2cc(OC)c(OC)c(OC)c2)ncc1Br [SBI-0206965]
SPR, 10-100 μM series and competition with 200 μM ATP (AMPKα1β1γ1 [1]): sensorgrams showed a progressive increase in the binding, which was much larger for SBI-0206965

Ki (AMPKα1β1γ1 [2]): 6.9 µM
SMILES: O=C(O)c1[nH]c2ccccc2c1-c1ccc(OCc2ccccc2)cc1 [IND6, 3-(4-(Benzyloxy)phenyl)-1H-indole-2-carboxylic acid]

Binding 100 μM (RU)^b / AMPK α1:β1:γ1 (AMPKα1β1γ1 [3]): 13.6 RU
SMILES: O=C(O)c1[nH]c2ccccc2c1-c1ccc(-c2ccccc2)cc1 [IND7]

Binding 100 μM (RU)^b / AMPK α1:β1:γ1 (AMPKα1β1γ1 [4]): 14.6 RU
SMILES: O=C(O)c1[nH]c2ccccc2c1-c1ccc(Oc2ccccc2)cc1 [IND8]
